This note sets out measurements from patent US20250154525A1, “PLANT VIRUS MOVEMENT PROTEINS AND METHODS OF USING SAME” (Molecular Transfer, Inc., priority 2016, published 2025).

The subject of one assay is some examined cell types. The assay is described as follows: Summary of Example 1: transfection expression and % cells transfected over the no peptide control. The following applies: on some examined cell types. The assay is classed as cell-based. An outline of the steps:
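Cells at 70% confluence received DNA complexes of EF1Alpha eGFP plasmid with DOTMA/DOPE (1:1) plus oligo-Arg- or oligo-Lys-tagged peptide ligands, formed 10 min at room temperature. After 42 h at 37 °C, 5% CO2, GFP read by plate reader and % transfected cells judged microscopically, relative to lipid without peptide.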

The next assay relates to C2C12 Cells. The assay is described as follows: GFP plasmid transfection with DOTMA/DOPE plus surface ligand peptide, fluorescent plate reader (Example 1). The assay is classed as cell-based, mouse. The following applies: DOTMA/DOPE + peptide linked to R12 or K16; EF1Alpha eGFP plasmid; 42 hours. The method, boiled down:
(§1)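 DOTMA/DOPE (1:1 molar) plus peptide bearing a poly-Arg or poly-Lys tag was complexed 10 min with EF1alpha eGFP plasmid in OptiMEM, then added to 70%-confluent cells (0.01 mL fibroblasts; 0.02 mL C2C12, Jurkat). After 42 h at 37 °C, GFP was read by plate reader and compared with DOTMA without ligand.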

For assay [1], the system named is HeLa Cells. The assay is described as follows: GFP transfection with DOTMA/SEQ ID NO: 72 (fusogenic peptide)/peptide compared with Lipofectamine 2000. The assay is classed as cell-based. The method, boiled down: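 DOTMA/DOPE (1:1 molar) lipid mixed with polyarginine- or polylysine-tagged cell-surface-ligand peptide, complexed 10 min with EF1alpha eGFP plasmid at 10 μg/mL in OptiMEM, fusogenic peptide at 0.1 mg/mL final; HeLa cells ~70% confluent given 0.01 mL complex. GFP read by fluorescence plate reader and microscopy (% cells transfected) after 42 h at 37° C; Lipofectamine 2000 as comparator.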

The subject of a further assay is NL-1 iPS Cells. The assay is described as follows: GFP plasmid transfection with DOTMA/DOPE plus surface ligand peptide, fluorescent plate reader (Example 1). Format: cell-based. The following applies: DOTMA/DOPE + peptide linked to R12 or K16; EF1Alpha eGFP plasmid; 42 hours.
The test system of another assay is Human Fibroblast Cells. Described as above. To be noted: DOTMA/DOPE + peptide linked to R12 or K16; EF1Alpha eGFP plasmid; 42 hours. The assay is classed as cell-based. An outline of the steps:
as §1

A further assay relates to HuVec Cells. The assay is described as above. Format: cell-based. To be noted: DOTMA/DOPE + peptide linked to R12 or K16; EF1Alpha eGFP plasmid; 42 hours. An outline of the steps:
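HuVEC cells in 96 well plates at 70% confluence were transfected with EF1Alpha eGFP plasmid using a 1:1 molar DOTMA/DOPE lipid mixed with a surface ligand peptide carrying a covalently attached nucleic acid binding moiety. Complexes formed for 10 minutes, 0.01 mL went to each well, cells were incubated 42 hours at 37° C., and fluorescence was read on a plate reader.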

The test system of the next assay is Jurkat Cells. The assay is described as above. The following applies: DOTMA/DOPE + peptide linked to R12 or K16; EF1Alpha eGFP plasmid; 42 hours. The assay is classed as cell-based. An outline of the steps:
as §1

The test system of assay [2] is HeLa Cells. The assay is described as above. Format: cell-based. The following applies: DOTMA/DOPE + peptide linked to R12 or K16; EF1Alpha eGFP plasmid; 42 hours.
[3] abbreviates: 0.1 μL of DOTMA/SEQ ID NO: 72/Peptide in well of a 96 well plate.
The mark [4] stands for this setting: 0.2 μL of DOTMA/SEQ ID NO: 72/Peptide in well of a 96 well plate.
Where [5] appears, read: 0.3 μL of DOTMA/SEQ ID NO: 72/Peptide in well of a 96 well plate.
[6] abbreviates: 0.4 μL of DOTMA/SEQ ID NO: 72/Peptide in well of a 96 well plate.

On to 348 (HQQDLGTAGSCLRKFSTM) [compound 348], for which the “transfection expression and % cells transfected over the no peptide control” value in the assay on some examined cell types is “increased transfection expression and the % cells transfected”. Besides, the “Relative Fluorescence of Transfection of C2C12 Cells (RF)” value in the assay with C2C12 Cells is 8625. Further, the “Relative Fluorescence DOTMA/SEQ ID NO: 72/Peptide, HeLa Cells (RF)” value (from here on “Relative Fluorescence DOTMA/SEQ ID NO”) with HeLa Cells [1] (setting [3]) came out at 17413; in the assay on HeLa Cells [1] (setting [4]), 18615; in the assay on HeLa Cells [1] (setting [5]), 16164; in the assay on HeLa Cells [1] (setting [6]) it was 15054. For the same substance, the “Relative Fluorescence of Transfection of NL-1 iPS Cells (RF)” value in the assay on NL-1 iPS Cells is on record as 21645. In the assay on Human Fibroblast Cells, the “Relative Fluorescence of Transfection of Human Fibroblast Cells (RF)” value was 11802. For the same substance, the “Relative Fluorescence of Transfection of HuVec Cells (RF)” value with HuVec Cells was 21214. For the same substance, the “Relative Fluorescence of Transfection of Jurkat Cells (RF)” value in the assay on Jurkat Cells turned out to be 15585. In addition, the “Relative Fluorescence of Transfection of HeLa Cells (RF)” value with HeLa Cells [2] is 22289.
As to 350 (SIGFRGDGQTC) [compound 350], in the assay with some examined cell types, the “transfection expression and % cells transfected over the no peptide control” value was “increased transfection expression and the % cells transfected”. Besides, the “Relative Fluorescence of Transfection of C2C12 Cells (RF)” value with C2C12 Cells was found to be 2631. Besides, the “Relative Fluorescence DOTMA/SEQ ID NO” value worked out at 24092 with HeLa Cells [1] (setting [3]), 23238 in the assay on HeLa Cells [1] (setting [4]), 19802 in the assay on HeLa Cells [1] (setting [5]) and 22255 in the assay with HeLa Cells [1] (setting [6]). For the same substance, the “Relative Fluorescence of Transfection of NL-1 iPS Cells (RF)” value with NL-1 iPS Cells stood at 19132. Moreover, in the assay with Human Fibroblast Cells, the “Relative Fluorescence of Transfection of Human Fibroblast Cells (RF)” value is 7105. For the same substance, the “Relative Fluorescence of Transfection of HuVec Cells (RF)” value in the assay with HuVec Cells was 13163. Moreover, in the assay on Jurkat Cells, the “Relative Fluorescence of Transfection of Jurkat Cells (RF)” value was found to be 9184. In the assay with HeLa Cells [2], the “Relative Fluorescence of Transfection of HeLa Cells (RF)” value amounted to 13313.
Consider 342 (TAGSCLRKFSTM) [compound 342], for which the “transfection expression and % cells transfected over the no peptide control” value in the assay with some examined cell types was “increased transfection expression and the % cells transfected”. The “Relative Fluorescence of Transfection of C2C12 Cells (RF)” value with C2C12 Cells is given as 9496. Further, the “Relative Fluorescence DOTMA/SEQ ID NO” value in the assay with HeLa Cells [1] (setting [3]) is recorded as 41299; in the assay with HeLa Cells [1] (setting [4]) it was 36040; with HeLa Cells [1] (setting [5]), 28841; in the assay with HeLa Cells [1] (setting [6]), 18351. The “Relative Fluorescence of Transfection of NL-1 iPS Cells (RF)” value with NL-1 iPS Cells was found to be 11493. The “Relative Fluorescence of Transfection of Human Fibroblast Cells (RF)” value in the assay on Human Fibroblast Cells amounted to 9525. Also, the “Relative Fluorescence of Transfection of HuVec Cells (RF)” value with HuVec Cells is 12804. Also, the “Relative Fluorescence of Transfection of Jurkat Cells (RF)” value with Jurkat Cells was found to be 12825. For the same substance, the “Relative Fluorescence of Transfection of HeLa Cells (RF)” value in the assay with HeLa Cells [2] is given as 33666.
Turning to 237 (KNSFMALYLSKG) [compound 237], the “transfection expression and % cells transfected over the no peptide control” value in the assay with some examined cell types was “increased transfection expression and the % cells transfected”. In the assay on C2C12 Cells, the “Relative Fluorescence of Transfection of C2C12 Cells (RF)” value was 6491. Besides, the “Relative Fluorescence DOTMA/SEQ ID NO” value with HeLa Cells [1] (setting [3]) is given as 8986; with HeLa Cells [1] (setting [4]) it was 9753; with HeLa Cells [1] (setting [5]), 8015; in the assay with HeLa Cells [1] (setting [6]), 8288. Further, the “Relative Fluorescence of Transfection of NL-1 iPS Cells (RF)” value with NL-1 iPS Cells is listed as 8632. Moreover, in the assay on Human Fibroblast Cells, the “Relative Fluorescence of Transfection of Human Fibroblast Cells (RF)” value is 2184. In the assay with HuVec Cells, the “Relative Fluorescence of Transfection of HuVec Cells (RF)” value was 2302. Besides, the “Relative Fluorescence of Transfection of Jurkat Cells (RF)” value in the assay on Jurkat Cells is recorded as 1501. Further, the “Relative Fluorescence of Transfection of HeLa Cells (RF)” value in the assay on HeLa Cells [2] is 21288.
367 (TDIPPCPHGWISLWK) [compound 367]: the “transfection expression and % cells transfected over the no peptide control” value in the assay with some examined cell types is “increased transfection expression and the % cells transfected”. Besides, the “Relative Fluorescence of Transfection of C2C12 Cells (RF)” value with C2C12 Cells stood at 16207. Further, the “Relative Fluorescence DOTMA/SEQ ID NO” value stood at 10427 with HeLa Cells [1] (setting [3]), 21411 in the assay on HeLa Cells [1] (setting [4]), 23001 in the assay with HeLa Cells [1] (setting [5]) and 17529 in the assay on HeLa Cells [1] (setting [6]). Moreover, the “Relative Fluorescence of Transfection of NL-1 iPS Cells (RF)” value with NL-1 iPS Cells is 17545. Further, the “Relative Fluorescence of Transfection of Human Fibroblast Cells (RF)” value with Human Fibroblast Cells turned out to be 10036. Moreover, the “Relative Fluorescence of Transfection of HuVec Cells (RF)” value in the assay on HuVec Cells is reported as 13354. Further, in the assay on Jurkat Cells, the “Relative Fluorescence of Transfection of Jurkat Cells (RF)” value is listed as 4365. Further, the “Relative Fluorescence of Transfection of HeLa Cells (RF)” value in the assay on HeLa Cells [2] worked out at 39008.
Turning to 218 (SPPRRARVT) [compound 218], the “transfection expression and % cells transfected over the no peptide control” value in the assay with some examined cell types was “increased transfection expression and the % cells transfected”. Further, the “Relative Fluorescence of Transfection of C2C12 Cells (RF)” value with C2C12 Cells was 3706. The “Relative Fluorescence DOTMA/SEQ ID NO” value in the assay on HeLa Cells [1] (setting [3]) is on record as 12686; with HeLa Cells [1] (setting [4]), 13103; with HeLa Cells [1] (setting [5]), 10151; in the assay with HeLa Cells [1] (setting [6]) it was 10081. In the assay on NL-1 iPS Cells, the “Relative Fluorescence of Transfection of NL-1 iPS Cells (RF)” value came out at 17049. The “Relative Fluorescence of Transfection of Human Fibroblast Cells (RF)” value in the assay with Human Fibroblast Cells amounted to 11230. In addition, in the assay on HuVec Cells, the “Relative Fluorescence of Transfection of HuVec Cells (RF)” value came to 14827. The “Relative Fluorescence of Transfection of Jurkat Cells (RF)” value with Jurkat Cells was 21451. Moreover, the “Relative Fluorescence of Transfection of HeLa Cells (RF)” value in the assay with HeLa Cells [2] was 11179.
Turning to 369 (TAIPSCPEGTVPLYS) [compound 369], in the assay on some examined cell types, the “transfection expression and % cells transfected over the no peptide control” value is “increased transfection expression and the % cells transfected”. Also, in the assay with C2C12 Cells, the “Relative Fluorescence of Transfection of C2C12 Cells (RF)” value is 3322. The “Relative Fluorescence DOTMA/SEQ ID NO” value in the assay with HeLa Cells [1] (setting [3]) worked out at 8737; in the assay on HeLa Cells [1] (setting [4]) it was 16706; in the assay with HeLa Cells [1] (setting [5]) it was 14880; with HeLa Cells [1] (setting [6]), 12645. Also, in the assay on NL-1 iPS Cells, the “Relative Fluorescence of Transfection of NL-1 iPS Cells (RF)” value amounted to 13124. In addition, the “Relative Fluorescence of Transfection of Human Fibroblast Cells (RF)” value in the assay on Human Fibroblast Cells is 7590. For the same substance, the “Relative Fluorescence of Transfection of HuVec Cells (RF)” value in the assay on HuVec Cells was found to be 6536. Further, in the assay on Jurkat Cells, the “Relative Fluorescence of Transfection of Jurkat Cells (RF)” value was found to be 11085. In the assay on HeLa Cells [2], the “Relative Fluorescence of Transfection of HeLa Cells (RF)” value is listed as 14444.
341 (LRAHAVDVNG) [compound 341]: the “transfection expression and % cells transfected over the no peptide control” value in the assay with some examined cell types is “increased transfection expression and the % cells transfected”. For the same substance, in the assay with C2C12 Cells, the “Relative Fluorescence of Transfection of C2C12 Cells (RF)” value is given as 2141. The “Relative Fluorescence DOTMA/SEQ ID NO” value in the assay on HeLa Cells [1] (setting [3]) is listed as 6406; with HeLa Cells [1] (setting [4]) it was 7469; in the assay with HeLa Cells [1] (setting [5]) it was 8020; in the assay with HeLa Cells [1] (setting [6]) it was 7546. Moreover, the “Relative Fluorescence of Transfection of NL-1 iPS Cells (RF)” value in the assay with NL-1 iPS Cells is given as 20446. Besides, the “Relative Fluorescence of Transfection of Human Fibroblast Cells (RF)” value in the assay on Human Fibroblast Cells came out at 2284. The “Relative Fluorescence of Transfection of HuVec Cells (RF)” value in the assay with HuVec Cells was found to be 15906. The “Relative Fluorescence of Transfection of Jurkat Cells (RF)” value in the assay with Jurkat Cells is given as 18042. The “Relative Fluorescence of Transfection of HeLa Cells (RF)” value in the assay with HeLa Cells [2] was determined as 4108.
